Legend:
[1] = molecular target: GDP-bound NRAS wild-type protein (Homo sapiens, UniProt P01111); experiment: Binding to NRAS by surface plasmon resonance (SPR), KD and KD ratio to KRAS
How it was run: (§1)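 Single-cycle kinetics on GDP-loaded biotin-Avi RAS captured to ~100–300 RU; 75 s ascending injections, 100 µL/min, 30°C. HBS pH 7.4 + 10 mM MgCl2/10 µM GDP/4% DMSO. 1:1 fit, KD.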

[2] = molecular target: GDP-bound KRAS wild-type protein (Homo sapiens, UniProt P01116); experiment: Binding to KRAS by surface plasmon resonance (SPR), dissociation constant KD
How it was run: as §1

[3] = system: human lung cancer strain NCI-H441; type: cell-based
How it was run: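 Proliferation was scored by […] measured after the reagent was added to cultures kept at 37°C in 5% carbon dioxide.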

HRAS wild-type protein = HRAS wild-type protein (Homo sapiens, UniProt P01112); experiment: Binding to HRAS by surface plasmon resonance (SPR), KD and KD ratio to KRAS
How it was run: as §1

[4] = ratio of KD value for GDP-bound NRAS wild-type protein to KD value for KRAS (SPR)
[5] = Single Cycle Kinetics, 1:1 binding model
[6] = ratio of KD value for HRAS wild-type protein to KD value for KRAS (SPR)
[7] = ratio of KD for GDP-bound NRAS wild-type protein to KD for KRAS
[8] = ratio of KD for HRAS wild-type protein to KD for KRAS

Sequence of GDP-bound KRAS wild-type protein (P01116 1-188 isoform P01116-2): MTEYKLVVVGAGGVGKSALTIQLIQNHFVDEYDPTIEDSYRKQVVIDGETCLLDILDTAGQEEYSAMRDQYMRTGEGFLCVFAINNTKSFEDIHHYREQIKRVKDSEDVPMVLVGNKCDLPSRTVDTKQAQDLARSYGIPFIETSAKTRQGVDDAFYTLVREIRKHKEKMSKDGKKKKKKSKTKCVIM
Sequence of HRAS wild-type protein (P01112 whole entry): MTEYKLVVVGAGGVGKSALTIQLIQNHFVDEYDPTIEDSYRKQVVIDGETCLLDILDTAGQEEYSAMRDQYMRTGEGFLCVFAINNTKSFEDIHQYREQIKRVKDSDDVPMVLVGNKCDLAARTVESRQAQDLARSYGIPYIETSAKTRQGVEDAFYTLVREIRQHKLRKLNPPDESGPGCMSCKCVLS
Sequence of GDP-bound NRAS wild-type protein (P01111 whole entry): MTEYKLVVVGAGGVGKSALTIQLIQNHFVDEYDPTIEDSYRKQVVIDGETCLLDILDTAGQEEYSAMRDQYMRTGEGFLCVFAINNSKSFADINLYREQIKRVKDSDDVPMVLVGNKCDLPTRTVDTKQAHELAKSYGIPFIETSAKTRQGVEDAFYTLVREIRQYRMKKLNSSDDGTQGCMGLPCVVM

SMILES	Kd [2, 5] [nM]	IC50 [3] [nM]	Kd ([2]; 1:1 binding model) [nM]	Kd ([2]; Single Cycle Kinetics) [nM]	NRAS /KRAS [1, 4]	HRAS /KRAS (HRAS wild-type protein; [6])	NRAS /KRAS [1, 7]	HRAS /KRAS (HRAS wild-type protein; [8])
CCCOC[C@H]1C(=O)N[C@@H]([C@@H](C)CC)C(=O)N(C)CC(=O)N(C)[C@H]2C/C=C\CCN(C2=O)[C@@H](Cc2ccc(C)cc2)C(=O)N(C)CC(=O)N[C@@H](CCc2cc(F)c(C(F)(F)F)c(F)c2)C(=O)N2C[C@H](OCC)C[C@H]2C(=O)NC2(CC(C)(C)C2)C(=O)N(C)[C@@H](C2CCCC2)C(=O)N(C)[C@H](C(=O)N(C)CC)CC(=O)N1C [PP1577]	0.17	6.7			B (a compound having 3 or more and less than 10 is denoted as B)	B (a compound having 3 or more and less than 10 is denoted as B)		
CCC(CC)[C@H]1C(=O)N(C)[C@H](C(=O)N(C)C)CC(=O)N(C)[C@@H](COC)C(=O)N[C@@H]([C@@H](C)CC)C(=O)N(C)CC(=O)N(C)[C@H]2C/C=C\CCN(C2=O)[C@@H](Cc2ccc(C)cc2)C(=O)N(C)CC(=O)N[C@@H](CCc2ccc(C(F)(F)F)c(OC)c2)C(=O)N2CCCC[C@H]2C(=O)NC2(CC(C)(C)C2)C(=O)N1C [PP2937]		137	1.1				A (a compound having 10 or more and less than 20 is denoted as A)	A (a compound having 10 or more and less than 20 is denoted as A)
CCO[C@@H]1C[C@H]2C(=O)NC3(CCC3)C(=O)N(C)[C@@H](C3CCCC3)C(=O)N(C)[C@H](C(=O)N3CCOCC3)CC(=O)N(C)[C@@H](CC(C)C)C(=O)N[C@@H]([C@@H](C)CC)C(=O)N(C)CC(=O)N(C)[C@H]3CCCCCN(C3=O)[C@@H](Cc3nccs3)C(=O)N(C)CC(=O)N[C@@H](CCc3cc(F)c(C(F)(F)F)c(F)c3)C(=O)N2C1 [PP0923]		445		1.6			B (a compound having 3 or more and less than 10 is denoted as B)	B (a compound having 3 or more and less than 10 is denoted as B)

The remaining compounds from weak to strong by IC50 [3], led by results:

Kd [2, 5] [nM]	IC50 [3] [nM]	Kd ([2]; 1:1 binding model) [nM]	Kd ([2]; Single Cycle Kinetics) [nM]	SMILES	NRAS /KRAS [1, 4]	HRAS /KRAS (HRAS wild-type protein; [6])	NRAS /KRAS [1, 7]	HRAS /KRAS (HRAS wild-type protein; [8])
0.71	48.8			CCO[C@@H]1C[C@H]2C(=O)NC3(CC(C)(C)C3)C(=O)N(C)[C@@H](C3CCCC3)C(=O)N(C)[C@@H](C(C)C)CC(=O)N(C)[C@@H](CC3CC3)C(=O)N[C@@H]([C@@H](C)CC)C(=O)N(C)CC(=O)N(C)[C@H]3C/C=C\CCN(C3=O)[C@@H](Cc3ccc(C(F)(F)F)cc3)C(=O)N(C)CC(=O)N[C@@H](CCc3cc(F)c(C(F)(F)F)c(F)c3)C(=O)N2C1 [PP1594]	A (a compound having 10 or more and less than 20 is denoted as A)	A (a compound having 10 or more and less than 20 is denoted as A)		
	39	1.1		CCCC[C@H]1C(=O)N[C@@H]([C@@H](C)CC)C(=O)N(C)CC(=O)N(C)[C@H]2C/C=C\CCN(C2=O)[C@@H](Cc2ccc(C(F)(F)F)cc2)C(=O)N(C)CC(=O)N[C@@H](CCc2ccc(C(F)(F)F)cc2Cl)C(=O)N2C[C@H](F)C[C@H]2C(=O)NC2(CC(C)(C)C2)C(=O)N(C)[C@@H](C2CCC2)C(=O)N(C)[C@H](C(=O)N(C)C)CC(=O)N1C [PP3124]			A (a compound having 10 or more and less than 20 is denoted as A)	A (a compound having 10 or more and less than 20 is denoted as A)
	26.2	0.53		CCO[C@@H]1C[C@H]2C(=O)NC3(CC(C)(C)C3)C(=O)N(C)[C@@H](C3CCCC3)C(=O)N(C)[C@H](C(=O)N(C)CC)CC(=O)N(C)[C@@H](CC(C)C)C(=O)N[C@@H]([C@@H](C)CC)C(=O)N(C)CC(=O)N(C)[C@H]3C/C=C\CCN(C3=O)[C@@H](Cc3ccc(C(F)F)cc3)C(=O)N(C)CC(=O)N[C@@H](CCc3ccc(C4CC4)c(F)c3)C(=O)N2C1 [PP3154]			A (a compound having 10 or more and less than 20 is denoted as A)	A (a compound having 10 or more and less than 20 is denoted as A)
	13.6		0.19	CC[C@H](C)[C@@H]1NC(=O)[C@H](COC)N(C)C(=O)C[C@@H](C(=O)N2CCOCC2)N(C)C(=O)[C@H](C2CCCC2)N(C)C(=O)C2(CCC2)NC(=O)[C@@H]2CC(F)(F)CN2C(=O)[C@H](CCc2cc(F)c(C(F)(F)F)c(F)c2)NC(=O)CN(C)C(=O)[C@H](Cc2ccc(C(F)(F)F)cc2)N2CCCCC[C@@H](C2=O)N(C)C(=O)CN(C)C1=O [PP0834]			A (a compound having 10 or more and less than 20 is denoted as A)	B (a compound having 3 or more and less than 10 is denoted as B)
